Values quoted from earlier work in patent US12622967B2, “Molecules, formulations, and methods for nutritional support of athletes, patients, and others” (Today, Inc., priority 2022, dated 2026).

Tests used:
[1] = systemic infusion to target 4 mM blood [lactate]; human experimentation under way, personal communication
[2] = high intensity exercise

SMILES	effect on cerebral LPR (lactate/pyruvate ratio) [1]	time to be oxidized to energy [2]
CC(O)C(=O)[O-].[Na+] (centres unmarked) [sodium lactate]	decreases cerebral LPR	–
CC(O)C(=O)O (centres unmarked) [lactate]	–	less than 5 min
